Data published in US20140073634A1 (Institute For Applied Cancer Science/The University of …, priority 2012, published 2014).
pIC50: −log10 of the molar value.

These compounds were tested on 293T-HRE-GFP-luc cells (assay: Cell-based reporter assay for IC50 determinations (HRE-luciferase, hypoxia)). Details: 6 h, 6 hrs hypoxia (1% O2), luminescence.
Procedure: Cell-Based Reporter Assay for IC50 Determinations
293T-HRE-GFP-luc cells were routinely maintained in DMEM media (high glucose version with GlutaMAX and HEPES, Gibco, catalog #10564) supplemented with 10% fetal bovine serum and 2 μg/mL puromycin (Invitrogen, catalog #A11138-03) using a humidified incubator (normoxia conditions consisting of 37° C., 5% CO2 and ambient O2).
In preparation for the reporter assay, cells were harvested and resuspended in DMEM media (high glucose version with GlutaMAX and HEPES) supplemented with 10% fetal bovine serum. Cells were inoculated into 384-well white Culturplates (Perkin Elmer catalog #6007680) at a density of 12,000 cells/well in a volume of […]. The microplates were incubated overnight (approximately 17-19 hours) at 37° C. with 5% CO2 and ambient O2. Stock solutions of the test compounds were prepared in DMSO (Sigma, Catalog #D2650) and serially diluted 1:3 using DMSO. Compounds were additionally diluted (1:50) with culturemedium and 10 µL were added per well to the Culturplate. Following a 30 min. incubation under normoxia conditions, the plates were incubated in hypoxia for 6 hrs. (37° C., 5% CO2 and 1% O2). Steadylite Plus (Perkin Elmer, catalog #6016751) was then added ([…]), the plates were mixed on an orbital shaker at room temperature in the dark for 15 min., and luminescence was measured using an Envision plate reader (Perkin Elmer). IC50 values were calculated using a four-parameter logistic curve fit. Results are shown below in Table 2; ND indicates no data.

| SMILES | pIC50 |
| --- | --- |
| O=c1ccc(-c2nc(-c3ccc(OC(F)(F)F)cc3)no2)cn1Cc1cccc(OCC(O)CO)c1 (stereo not shown) [Example 55, 1-(3-(2,3-Dihydroxypropoxy)benzyl)-5-(3-(4-(trifluoromethoxy)phenyl)-1,2,4-oxadiazol-5-yl)pyridin-2(1H)-one] | > 7.00 |
| CC(C)=Cc1cccc(Cn2cc(-c3nc(-c4ccc(OC(F)(F)F)cc4)no3)ccc2=O)c1 [Example 56, 1-(3-(2-methylprop-1-enyl)benzyl)-5-(3-(4-(trifluoromethoxy)phenyl)-1,2,4-oxadiazol-5-yl)pyridin-2(1H)-one] | > 7.00 |
| CC(C)(O)C(O)c1cccc(Cn2cc(-c3nc(-c4ccc(OC(F)(F)F)cc4)no3)ccc2=O)c1 (stereo not shown) [Example 57, 1-(3-(1,2-Dihydroxy-2-methylpropyl)benzyl)-5-(3-(4-(trifluoromethoxy)phenyl)-1,2,4-oxadiazol-5-yl)pyridin-2(1H)-one] | > 7.00 |
| O=c1ccc(-c2nc(-c3ccc(OC(F)(F)F)cc3)no2)cn1Cc1cccc(N2CCC(O)CC2)c1 [Example 58, 1-(3-(4-Hydroxypiperidin-1-yl)benzyl)-5-(3-(4-(trifluoromethoxy)phenyl)-1,2,4-oxadiazol-5-yl)pyridin-2(1H)-one] | > 7.00 |
| O=c1ccc(-c2nc(-c3ccc(OC(F)(F)F)cc3)no2)cn1Cc1cccc(N2CCNCC2)c1 [Example 59, 1-(3-(piperazin-1-yl)benzyl)-5-(3-(4-(trifluoromethoxy)phenyl)-1,2,4-oxadiazol-5-yl)pyridin-2(1H)-one] | > 7.00 |
| O=C(CO)N1CCN(c2cccc(Cn3cc(-c4nc(-c5ccc(OC(F)(F)F)cc5)no4)ccc3=O)c2)CC1 [Example 60] | > 7.00 |
| CS(=O)(=O)N1CCN(c2cccc(Cn3cc(-c4nc(-c5ccc(OC(F)(F)F)cc5)no4)ccc3=O)c2)CC1 [Example 61] | > 7.00 |
| NCC(O)COc1cccc(Cn2cc(-c3nc(-c4ccc(OC(F)(F)F)cc4)no3)ccc2=O)c1 (stereo not shown) [Example 62, 1-(3-(3-Amino-2-hydroxypropoxy)benzyl)-5-(3-(4-(trifluoromethoxy)phenyl)-1,2,4-oxadiazol-5-yl)pyridin-2(1H)-one] | > 7.00 |
| CN1CCN(c2cccc(Cn3cc(-c4nc(-c5ccc(C(F)(F)F)cc5)no4)ccc3=O)c2)CC1 [Example 63, 1-(3-(4-Methylpiperazin-1-yl)benzyl)-5-(3-(4-(trifluoromethyl)phenyl)-1,2,4-oxadiazol-5-yl)pyridin-2(1H)-one] | > 7.00 |
| COCCOc1cccc(Cn2cc(-c3noc(-c4ccc(N5CCCS5(=O)=O)cc4)n3)ccc2=O)c1 [Example 66, 5-(5-(4-(1,1-Dioxidoisothiazolidin-2-yl)phenyl)-1,2,4-oxadiazol-3-yl)-1-(3-(2-methoxyethoxy)benzyl)pyridin-2(1H)-one] | 6.00 to 7.00 |
| COCCOc1cccc(Cn2cc(-c3noc(-c4ccc(C5CC5)cc4)n3)ccc2=O)c1 [Example 67, 5-(5-(4-Cyclopropylphenyl)-1,2,4-oxadiazol-3-yl)-1-(3-(2-methoxyethoxy)benzyl)pyridin-2(1H)-one] | > 7.00 |
| COCCOc1cccc(Cn2cc(-c3noc(-c4ccc(C(C)(C)C#N)cc4)n3)ccc2=O)c1 [Example 68, 2-(4-(3-(1-(3-(2-Methoxyethoxy)benzyl)-6-oxo-1,6-dihydropyridin-3-yl)-1,2,4-oxadiazol-5-yl)phenyl)-2-methylpropanenitrile] | 6.00 to 7.00 |
| CS(=O)(=O)CCCOc1cccc(Cn2cc(-c3noc(-c4ccc(OC(F)(F)F)cc4)n3)ccc2=O)c1 [Example 69, 1-(3-(3-(Methylsulfonyl)propoxy)benzyl)-5-(5-(4-(trifluoromethoxy)phenyl)-1,2,4-oxadiazol-3-yl)pyridin-2(1H)-one] | > 7.00 |
| COCCOc1cccc(Cn2cc(-c3noc(-c4ccc(C(C)(C)CO)cc4)n3)ccc2=O)c1 [Example 70, 5-(5-(4-(1-Hydroxy-2-methylpropan-2-yl)phenyl)-1,2,4-oxadiazol-3-yl)-1-(3-(2-methoxyethoxy)benzyl)pyridin-2(1H)-one] | > 7.00 |
| COCCOc1cccc(Cn2cc(-c3noc(-c4ccc(C5(C(F)(F)F)CC5)cc4)n3)ccc2=O)c1 [Example 71, 1-(3-(2-Methoxyethoxy)benzyl)-5-(5-(4-(1-(trifluoromethyl)cyclopropyl)phenyl)-1,2,4-oxadiazol-3-yl)pyridin-2(1H)-one] | > 7.00 |
| COCCOc1cccc(Cn2cc(-c3noc(-c4ccc(C(C)(C)COC)cc4)n3)ccc2=O)c1 [Example 72, 15-(5-(4-(1-Methoxy-2-methylpropan-2-yl)phenyl)-1,2,4-oxadiazol-3-yl)-1-(3-(2-methoxyethoxy)benzyl)pyridin-2(1H)-one] | > 7.00 |
| COCCOc1cccc(Cn2cc(-c3noc(-c4ccc(C(C)(C)O)cc4)n3)ccc2=O)c1 [Example 73, 5-(5-(4-(2-Hydroxypropan-2-yl)phenyl)-1,2,4-oxadiazol-3-yl)-1-(3-(2-methoxyethoxy)benzyl)pyridin-2(1H)-one] | > 7.00 |
| COCCOc1cccc(Cn2cc(-c3noc(-c4ccc(C5CCOCC5)cc4)n3)ccc2=O)c1 [Example 74, 1-(3-(2-Methoxyethoxy)benzyl)-5-(5-(4-(tetrahydro-2H-pyran-4-yl)phenyl)-1,2,4-oxadiazol-3-yl)pyridin-2(1H)-one] | > 7.00 |
| COCCOc1cccc(Cn2cc(-c3noc(-c4ccc(C5CCSCC5)cc4)n3)ccc2=O)c1 [Example 75, 1-(3-(2-Methoxyethoxy)benzyl)-5-(5-(4-(tetrahydro-2H-thiopyran-4-yl)phenyl)-1,2,4-oxadiazol-3-yl)pyridin-2(1H)-one] | > 7.00 |
| CC(C)Oc1ccc(-c2nc(-c3ccc(=O)n(Cc4cccc(C(C)(C)O)c4)c3)no2)cc1 [Example 76, 1-(3-(2-Hydroxypropan-2-yl)benzyl)-5-(5-(4-isopropoxyphenyl)-1,2,4-oxadiazol-3-yl)pyridin-2(1H)-one] | > 7.00 |
| CS(=O)(=O)C1CCN(c2cccc(Cn3cc(-c4noc(-c5ccc(N6CCOCC6)cc5)n4)ccc3=O)c2)CC1 [Example 77, 1-(3-(4-(Methylsulfonyl)piperidin-1-yl)benzyl)-5-(5-(4-morpholinophenyl)-1,2,4-oxadiazol-3-yl)pyridin-2(1H)-one] | > 7.00 |
| CC(C)Oc1ccc(-c2nc(-c3ccc(=O)n(Cc4cccc(N5CCC(S(C)(=O)=O)CC5)c4)c3)no2)cc1 [Example 78, 5-(5-(4-Isopropoxyphenyl)-1,2,4-oxadiazol-3-yl)-1-(3-(4-(methylsulfonyl)piperidin-1-yl)benzyl)pyridin-2(1H)-one] | > 7.00 |
| COCCOc1cccc(Cn2cc(-c3nc(-c4ccc(C5(O)CCCCC5)cc4)no3)ccc2=O)c1 [Example 80, 5-(3-(4-(1-Hydroxycyclohexyl)phenyl)-1,2,4-oxadiazol-5-yl)-1-(3-(2-methoxyethoxy)benzyl)pyridin-2(1H)-one] | > 7.00 |
| COCCOc1cccc(Cn2cc(-c3noc(-c4ccc(C(C)(C)OC)cc4)n3)ccc2=O)c1 [Example 81, 1-(3-(2-Methoxyethoxy)benzyl)-5-(5-(4-(2-methoxypropan-2-yl)phenyl)-1,2,4-oxadiazol-3-yl)pyridin-2(1H)-one] | > 7.00 |
| CS(=O)(=O)C1CCN(c2cccc(Cn3nc(-c4nc(-c5ccc(OC(F)F)cc5)no4)ccc3=O)c2)CC1 [Example 82, 6-(3-(4-(Difluoromethoxy)phenyl)-1,2,4-oxadiazol-5-yl)-2-(3-(4-(methylsulfonyl)piperidin-1-yl)benzyl)pyridazin-3(2H)-one] | > 7.00 |
| CS(=O)(=O)C1CCN(c2cccc(Cn3nc(-c4nc(-c5ccc(N6CCOCC6)cc5)no4)ccc3=O)c2)CC1 [Example 83, 2-(3-(4-(Methylsulfonyl)piperidin-1-yl)benzyl)-6-(3-(4-morpholinophenyl)-1,2,4-oxadiazol-5-yl)pyridazin-3(2H)-one] | > 7.00 |
| COCCOc1cccc(Cn2cc(-c3noc(-c4ccc(C5CCCCC5)cc4)n3)ccc2=O)c1 [Example 84, 5-(5-(4-Cyclohexylphenyl)-1,2,4-oxadiazol-3-yl)-1-(3-(2-methoxyethoxy)benzyl)pyridin-2(1H)-one] | > 7.00 |
| COCCOc1cccc(Cn2cc(-c3noc(-c4ccc(S(=O)(=O)CC#N)cc4)n3)ccc2=O)c1 [Example 85, 2-(4-(3-(1-(3-(2-Methoxyethoxy)benzyl)-6-oxo-1,6-dihydropyridin-3-yl)-1,2,4-oxadiazol-5-yl)phenylsulfonyl)acetonitrile] | 6.00 to 7.00 |
| COCCOc1cccc(Cn2cc(-c3noc(-c4cnc(SC)nc4)n3)ccc2=O)c1 [Example 86, 1-(3-(2-Methoxyethoxy)benzyl)-5-(5-(2-(methylthio)pyrimidin-5-yl)-1,2,4-oxadiazol-3-yl)pyridin-2(1H)-one] | > 7.00 |
| COCCOc1cccc(Cn2cc(-c3noc(-c4cnc(OCC(C)C)nc4)n3)ccc2=O)c1 [Example 87, 5-(5-(2-Isobutoxypyrimidin-5-yl)-1,2,4-oxadiazol-3-yl)-1-(3-(2-methoxyethoxy)benzyl)pyridin-2(1H)-one] | > 7.00 |

Same assay, conditions: 6 hrs hypoxia (1% O2), luminescence

| SMILES | pIC50 |
| --- | --- |
| COCCOc1cccc(Cn2cc(-c3noc(-c4ccc(C(F)(F)F)cc4)n3)ccc2=O)c1 [Example 65, 1-(3-(2-Methoxyethoxy)benzyl)-5-(5-(4-(trifluoromethyl)phenyl)-1,2,4-oxadiazol-3-yl)pyridin-2(1H)-one] | 6.00 to 7.00 |
